In patent publication US12582680B2, “Pharmaceutical composition for prevention, amelioration, or treatment of skin disease” (priority 2019, dated 2026):

Legend:
SPF-Tmem79-KO mouse = test: Antibiotic in drinking water, dermatitis clinical scores of SPF-Tmem79-KO mouse; assay type: in vivo; conditions: 200 mg/mL in drinking water; FIG. 9B
Protocol: For the SPF-Tmem79-KO mouse and the control (SPF-WT mice), the clinical scores were evaluated on a 4-point scale of 0: normal, 1: mild, 2: moderate, and 3: severe for each of the four items of erythema, edema, erosion, and dryness. The degree of inflammation in the skin was evaluated by using the total value of the clinical scores of the four items. In the drawing, the SPF-Tmem79-KO mouse is described as “SPF Tmem79^−/−”, and the SPF-WT mouse is described as “SPF WT”. It can be understood that the SPF-Tmem79-KO mouse developed bimodal dermatitis.
Ampicillin (manufactured by NACALAI TESQUE, INC.) or fusidic acid (manufactured by Sigma-Aldrich Co. LLC.) was suspended in drinking water so as to be 200 mg/mL and the resultant drinking water was administered to the SPF-Tmem79-KO mouse, and the clinical scores were obtained with time.

S. cohnii = test: Sensitivity to antibiotics, culture of skin bacteria in media containing antibiotics, number of colonies; assay type: cell-based; conditions: FIGS. 9C and 9E
Description: (§1) FIG. 9A is a schematic diagram showing an experimental flow. FIG. 9B is a graph that indicates changes over time of clinical scores in the skins of SPF-Tmem79^−/− mice inoculated with ampicillin (Amp) or fusidic acid (FA) being an antibiotic (ABx).
(§2) Further, the sensitivity of S. aureus and S. cohnii to both antibiotics was verified by using the antibiotics. The proliferation of S. aureus was suppressed by any one of the ampicillin and the fusidic acid (FIGS. 9C and 9D).

S. aureus = test: as above; assay type: cell-based; conditions: FIGS. 9C and 9D
Description: as §1, §2

[1] = test system: GF-WT mouse applied with imiquimod; test: Imiquimod-initiated inflammation in GF-WT mouse, squalene and mifepristone; assay type: in vivo
Protocol: Imiquimod (Beselna cream, manufactured by MOCHIDA PHARMACEUTICAL CO., LTD.) was applied onto the ears of a GF-WT mouse at a dose of 50 mg per mouse once a day for 5 consecutive days.
Further, in another group of mice, mifepristone (M8046-1G, manufactured by Sigma-Aldrich Co. LLC) was administered to the mice freely at 210 μg/mL in drinking water during the experimental period.

[2] = mifepristone 210 μg/mL in drinking water

SMILES: CC1(C)S[C@@H]2[C@H](NC(=O)[C@H](N)c3ccccc3)C(=O)N2[C@H]1C(=O)O [ampicillin]
- degree of dermatitis (clinical scores) (SPF-Tmem79-KO mouse): alleviation of the dermatitis was not observed
- proliferation of S. cohnii (S. cohnii): significantly suppressed
- proliferation of S. aureus (S. aureus): suppressed

SMILES: CC(=O)O[C@H]1C[C@@]2(C)[C@@H](C[C@@H](O)[C@H]3[C@@]4(C)CC[C@@H](O)[C@@H](C)[C@@H]4CC[C@@]32C)/C1=C(\CCC=C(C)C)C(=O)O [fusidic acid]
- degree of dermatitis (clinical scores) (SPF-Tmem79-KO mouse): alleviated
- proliferation of S. cohnii (S. cohnii): not suppressed
- proliferation of S. aureus (S. aureus): suppressed

SMILES: CC#C[C@]1(O)CC[C@H]2[C@@H]3CCC4=CC(=O)CCC4=C3[C@@H](c3ccc(N(C)C)cc3)C[C@@]21C [mifepristone]
- suppression of imiquimod-initiated inflammation by S. cohnii, effect of mifepristone [1, 2]: inhibited
- suppression of imiquimod-initiated inflammation by squalene, effect of mifepristone [1, 2]: inhibition of suppressive effect

SMILES: CC(C)=CCC/C(C)=C/CC/C(C)=C/CC/C=C(\C)CC/C=C(\C)CCC=C(C)C [squalene]
- imiquimod-initiated inflammation (ear swelling and lymph node swelling) ([1]; S. cohnii 2.0×10^7 CFU first 3 days, squalene 200 μl per mouse for 5 days, FIGS. 22B and 22C): almost the same as that of S. cohnii
